Reference: publication PMC2682676 (Diabetes, 2009)

Assays:
αTC1 cells = experiment: Glucagon secretion from αTC1 cells; assay type: cell-based; details: αTC1 cells stimulated with GIP; secretion into the medium
[1] = tested on: subjects with type 2 diabetes; assay type: in vivo, human
[2] = tested on: subjects with type 2 diabetes; experiment: Gastric emptying by appearance of acetaminophen in plasma during GIP infusion; assay type: in vivo, human; details: 1 g acetaminophen with first bite; last 10 subjects

CC[C@H](C)[C@H](NC(=O)[C@H](CO)NC(=O)[C@H](Cc1ccc(O)cc1)NC(=O)[C@H](CC(=O)O)NC(=O)[C@H](CO)NC(=O)[C@@H](NC(=O)[C@H](Cc1ccccc1)NC(=O)[C@@H](NC(=O)CNC(=O)[C@H](CCC(=O)O)NC(=O)[C@H](C)NC(=O)[C@@H](N)Cc1ccc(O)cc1)[C@@H](C)O)[C@@H](C)CC)C(=O)N[C@@H](C)C(=O)N[C@@H](CCSC)C(=O)N[C@@H](CC(=O)O)C(=O)N[C@@H](CCCCN)C(=O)N[C@H](C(=O)N[C@@H](Cc1c[nH]cn1)C(=O)N[C@@H](CCC(N)=O)C(=O)N[C@@H](CCC(N)=O)C(=O)N[C@@H](CC(=O)O)C(=O)N[C@@H](Cc1ccccc1)C(=O)N[C@H](C(=O)N[C@@H](CC(N)=O)C(=O)N[C@@H](Cc1c[nH]c2ccccc12)C(=O)N[C@@H](CC(C)C)C(=O)N[C@@H](CC(C)C)C(=O)N[C@@H](C)C(=O)N[C@@H](CCC(N)=O)C(=O)N[C@@H](CCCCN)C(=O)NCC(=O)N[C@@H](CCCCN)C(=O)N[C@@H](CCCCN)C(=O)N[C@@H](CC(N)=O)C(=O)N[C@@H](CC(=O)O)C(=O)N[C@@H](Cc1c[nH]c2ccccc12)C(=O)N[C@@H](CCCCN)C(=O)N[C@@H](Cc1c[nH]cn1)C(=O)N[C@@H](CC(N)=O)C(=O)N[C@H](C(=O)N[C@H](C(=O)N[C@@H](CCC(N)=O)C(=O)O)[C@@H](C)O)[C@@H](C)CC)C(C)C)[C@@H](C)CC [GIP, Glucose-dependent insulinotropic polypeptide]
glucagon secretion (αTC1 cells): glucagon secretion in a concentration-dependent manner
plasma glucagon, early postprandial period vs placebo ([1]; 20 ng/kg/min i.v., 0-60 min, positive AUC0-60 P < 0.01, n = 22): statistically significant augmentation in glucagon secretion
plasma glucose, early postprandial period vs placebo ([1]; 20 ng/kg/min i.v., t = 0-60 min, negative AUC0-60 P < 0.05, n = 22): early transient decrease in plasma glucose
plasma insulin, early postprandial period vs placebo ([1]; 20 ng/kg/min i.v., t = 0-60 min, positive AUC0-60 P < 0.01, n = 22): statistically significant increase in plasma insulin
resistin levels vs placebo ([1]; during 3 h of infusion, data not shown): no effect on resistin levels
gastric emptying (plasma acetaminophen levels, AUCALL t = 0-180 min) vs placebo [2]: did not affect gastric emptying
